Results: article PMC11472310, “Distinctive Immune Signatures Driven by Structural Alterations in Desmuramylpeptide NOD2 Agonists” (Journal of Medicinal Chemistry, 2024)

Experiments:
Format in all cases: cell-based
hNOD2 = target: T1, hNOD2 (Homo sapiens, UniProt Q9HC29); experiment: HEK-Blue NOD2 cell line reporter assay (NF-κB-inducible SEAP); conditions: HEK-Blue NOD2 cells, 18 h, NF-κB transcriptional activity (SEAP); read-out: EC50 (nM), NOD2 agonistic activity
T1 construct: host or cells: HEK-Blue NOD2 cells (HEK293)
Description: To assess the NOD2 agonistic potential of the synthesized desmuramylpeptides at a cellular level, we employed the HEK-Blue NOD2 cell line reporter assay, a validated and commercially available method. All synthesized compounds were evaluated for their dose-dependent activities to establish their EC50 values.
The HEK-Blue NOD1 and NOD2 cell line reporter assay was generated from HEK293 cells through cotransfection of the hNOD1 or hNOD2 gene, respectively, along with an NF-κB-inducible secreted embryonic alkaline phosphatase (SEAP) reporter gene. Upon activation of NOD1 or NOD2, NF-κB triggers the production of SEAP, which can be quantitatively measured colorimetrically. […] After 18 h of incubation at 37 °C with 5% CO2, SEAP activity was measured spectrophotometrically by absorbance at 630 nm (BioTek Synergy microplate reader; Winooski, VT, USA). EC50 values were determined using Prism software (version 9; GraphPad Software, CA, USA). Each experiment was conducted in duplicate and repeated in at least two independent biological replicates.

PBMCs = experiment: Direct cytotoxic effect of compounds on PBMCs (Sytox blue); conditions: human, 18 h, 10 μM
Description: Additionally, PBMCs and cancer cells alone were treated with desmuramylpeptides to assess any direct cytotoxic effects on these cells.
(§1) The PBMC cytotoxicity assays utilizing K562 cells were conducted following previously established methods, with some adjustments.[82] […] Meanwhile, K562 cells were stained with CFSE (Invitrogen, Carlsbad, CA, USA), washed twice with complete medium, and then added (1 × 10^4 cells per well) to the pretreated PBMCs to achieve a final effector cell to target tumor cell ratio of 40:1. Following a 4-h coincubation period at 37 °C with 5% CO2, cells were stained with Sytox blue dead cell stain (Invitrogen) and analyzed using an Attune NxT flow cytometer (Thermo Fisher Scientific, Waltham, MA, USA) along with FlowJo software (Tree Star, Inc., Ashland, OR, USA). Cells positive for both CFSE and Sytox blue were designated as dead K562 cells. PBMCs alone and CFSE-labeled cancer cells alone were also exposed to the compounds at equivalent concentrations and stained with Sytox blue to assess any direct cytotoxic effects of the compounds on PBMCs and cancer cells separately. Each experiment was conducted in duplicate and repeated in three independent biological replicates. Statistical analysis was performed using one-way ANOVA followed by Dunnett’s multiple comparisons test.

human PBMCs = experiment: Cytokine release from peripheral blood mononuclear cells (LEGENDplex panel); conditions: 18 h
From the text: The immunomodulatory effects of the selected desmuramylpeptides were examined in human primary peripheral blood mononuclear cells (PBMCs). This diverse mixture of immune cells provided a platform to investigate the effects of these NOD2 agonists within a physiologically relevant environment, encompassing other NOD2-interacting and downstream signaling proteins. […] Given that NOD2 activation often modulates the Toll-like receptor (TLR)-induced cytokine responses, we investigated the impact of combining desmuramylpeptides with lipopolysaccharide (LPS), a well-known TLR4 agonist, on cytokine secretion.[76]−[78]
The elicited cytokine profiles thus broadly reflect the structure–activity relationships obtained in the reporter gene assays.
Peripheral blood mononuclear cells were plated at a density of 1 × 10^6 cells/mL in 48-well plates containing 500 μL of growth medium. Cells were then treated with the compounds (2 μM) or the corresponding vehicle (0.1% DMSO), both in the absence and presence of LPS (10 ng/mL). Following an 18 h incubation period at 37 °C with 5% CO2, cell-free supernatants were collected and stored at −80 °C until analysis. […] Standard curves were constructed using recombinant cytokines provided in the kit. Data analysis was performed using Biolegend software Qognit and Prism (GraphPad, San Diego, CA, USA) software. The experiments were independently replicated four times. Statistical significance was determined using two-way analysis of variance (ANOVA) followed by Tukey’s multiple comparisons test.

[1] = system: human blood monocyte subsets; experiment: Monocyte conversion assay in PBMCs (CD14/CD16 flow cytometry); conditions: 10 μM, 18 h, NT 19.5%
From the text: Engagement of NOD2 has been reported to increase the levels of an anti-inflammatory monocyte subset, denoted as patrolling monocytes (CD14^–, CD16^+2), thus exerting a counterintuitive role in inflammatory processes, while concomitantly increasing the levels of total blood monocytes (released from bone marrow).[18] […] This process involves a transition from the inflammatory monocytes, typified by CD14^+CD16^–, through an intermediate subset of CD14^+CD16^+ monocytes. […] To recapitulate this phenomenon, we modified the reported procedure and employed PBMCs in lieu of isolated monocytes. Identification of human blood monocyte subsets was achieved through flow cytometry, utilizing the expression of CD14 and CD16 markers as distinguishing criteria. […] Similar to what has been reported (e.g., inactivity of murabutide),[18] also in our case not all NOD2 agonists were equally endowed with the ability to generate patrolling monocytes.
The monocyte conversion assay was conducted following previously established methods, with some adjustments.[18] Peripheral blood mononuclear cells were plated at a density of 3 × 10^6 cells/mL in 24-well plates containing 700 μL of growth medium. Cells were then treated with MDP and desmuramylpeptides (10 μM) or the corresponding vehicle (0.1% DMSO). Following an incubation period at 37 °C with 5% CO2, cells were transferred to 1.5 mL tube using phosphate-buffered saline (PBS) and scraper. The cells were blocked with human TruStain Fcx (BioLegend) and stained using antihuman CD16 antibodies/Alexa Fluor 488 (BioLegend); antihuman CD14 antibodies/PE-Cy7 (BioLegend); antihuman HLA-DR antibodies/APC-Fire750 (BioLegend) and blocked with TrueStain Monocyte Blocker. A viability dye Helix NP Blue (BioLegend) was added to the previous panel to discriminate live cells. PBMC were analyzed using an Attune NxT flow cytometer (Thermo Fisher Scientific, Waltham, MA, USA) and the FlowJo software (Tree Star, Inc., Ashland, OR, USA). Initially, lymphocytes (CD14^–, CD16^–) and NK (CD16^–, HLA-DR^–) were eliminated, after which classical, intermediate and nonclassical monocytes were specifically identified by selective gating strategy as follows: CD14^+ CD16^– (classical), CD14^+ CD16^+ (intermediate) and CD14^– CD16^+ (nonclassical). Each experiment was conducted in duplicate and repeated in three independent biological replicates.

K562 cancer cells = experiment: PBMC cytotoxicity against K562 cancer cells (flow cytometry)
Description: In this study, we investigated the potential of desmuramylpeptides, both alone and in combination with LPS, to enhance the cytotoxic activity of PBMCs against cancer cells employing a flow-cytometry-based cytotoxicity assay based on coincubation of preactivated PBMCs with fluorescently labeled K562 cancer cells.[82] Among the diverse subpopulations within PBMCs, natural killer (NK) cells play a pivotal role in detecting and eliminating cancer cells. NOD2-mediated NK cell activity against cancer cells arises from both direct NOD2 agonist elicited cytolytic activity of NK cells[83] and indirect activation through cytokine release by other NOD2-responsive cells, such as monocytes, which comprise approximately 10% of PBMCs; such interactions potentially reinforce the immune response.[84] […] To that end, we utilized the entire PBMC population as effector cells rather than isolated NK cells, to mimic conditions more closely resembling the in vivo environment while K562 chronic myelogenous leukemia cells were used as the target cells in a 40:1 effector to target cell ratio.[87]
as §1

T1 sequence (Q9HC29 whole entry): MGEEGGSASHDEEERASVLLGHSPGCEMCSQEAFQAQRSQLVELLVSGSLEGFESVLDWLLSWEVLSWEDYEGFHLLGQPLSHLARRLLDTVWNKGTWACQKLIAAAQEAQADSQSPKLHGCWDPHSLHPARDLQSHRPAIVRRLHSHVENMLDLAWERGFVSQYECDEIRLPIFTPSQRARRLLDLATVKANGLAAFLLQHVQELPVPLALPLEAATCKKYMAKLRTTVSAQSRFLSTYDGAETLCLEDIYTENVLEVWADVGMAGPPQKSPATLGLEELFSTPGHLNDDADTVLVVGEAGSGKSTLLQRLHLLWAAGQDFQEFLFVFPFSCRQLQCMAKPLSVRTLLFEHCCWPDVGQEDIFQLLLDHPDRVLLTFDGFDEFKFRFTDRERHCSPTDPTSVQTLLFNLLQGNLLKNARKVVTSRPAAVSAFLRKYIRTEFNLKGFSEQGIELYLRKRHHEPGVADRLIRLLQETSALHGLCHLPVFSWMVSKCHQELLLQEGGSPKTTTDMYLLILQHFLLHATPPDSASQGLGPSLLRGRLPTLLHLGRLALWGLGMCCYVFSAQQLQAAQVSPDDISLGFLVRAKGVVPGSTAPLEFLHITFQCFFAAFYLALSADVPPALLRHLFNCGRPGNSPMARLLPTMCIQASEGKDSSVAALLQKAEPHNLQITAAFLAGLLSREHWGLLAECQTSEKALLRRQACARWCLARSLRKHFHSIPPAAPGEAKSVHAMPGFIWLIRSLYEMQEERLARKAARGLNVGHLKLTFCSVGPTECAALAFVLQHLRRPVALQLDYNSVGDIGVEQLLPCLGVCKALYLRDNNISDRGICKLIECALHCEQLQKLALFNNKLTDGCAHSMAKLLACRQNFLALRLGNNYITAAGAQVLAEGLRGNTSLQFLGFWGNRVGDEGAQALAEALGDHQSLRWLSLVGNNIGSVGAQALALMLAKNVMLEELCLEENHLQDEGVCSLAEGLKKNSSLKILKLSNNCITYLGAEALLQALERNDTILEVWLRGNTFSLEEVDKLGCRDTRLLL

CC(=O)N[C@H]1C(O)O[C@H](CO)[C@@H](O)[C@@H]1O[C@H](C)C(=O)N[C@@H](C)C(=O)N[C@H](CCC(=O)O)C(N)=O (mixture of isomers) [MDP, muramyl dipeptide, reference compound]
EC50 (hNOD2): 205 ± 64 nM | Percent of dead PBMCs (PBMCs): 1.11% ± 0.15% | Percent of dead PBMCs, + LPS (PBMCs): 7.95% ± 0.95% | levels of LPS-induced IL-10 (human PBMCs; 2 μM + LPS 10 ng/mL): amplified | production of proinflammatory cytokines and chemokines including IL-6, IL-8 and MCP-1 (human PBMCs; 2 μM alone (no LPS)): minor increases | levels of nonclassical monocytes [1]: 31.5% | cytotoxicity of PBMCs against K562 cells, cotreatment with LPS (relative to negative control) (K562 cancer cells; 10 μM + LPS 1 μg/mL, 18 h, then 4 h coincubation, 40:1): 2.71 fold | Cytotoxicity (ratio to control), + LPS (K562 cancer cells; Table S2, 10 μM + LPS 1 μg/mL): 2.71 ± 0.16 | Cytotoxicity (ratio to control) (K562 cancer cells; Table S2, alone: compounds 10 μM, LPS 1 μg/mL, IL-2 200 U/mL): 1.17 ± 0.07 | enhancement of cytotoxicity of PBMCs against K562 cells (relative to negative control) (K562 cancer cells; alone: compounds 10 μM, LPS 1 μg/mL, IL-2 200 U/mL, 18 h, then 4 h coincubation, effector:target 40:1): no activity
